11 compounds from patent EP0081924A1, “Topical compostions for lowering intraocular pressure” (ALCON LABORATORIES, INC., priority 1981, dated 1983) can be followed below.

The structures appear in SMILES notation. Structures can show the parent of a compound that is named as a salt. Where two headings read alike, the source gives them in different places.

Experiment [1] deals with Intraocular Pressure. The experiment in a line: Rhesus Monkey - Laser Model, IOP lowering after topical administration. In kind it is in vivo, Rhesus monkeys. As to conditions: laser-induced ocular hypertension, peak effect, percentage change in the hypertensioned eye versus the same eye at the same hour the previous day.
Protocol: A. Rhesus Monkey - Laser Model
Ocular hypertension was produced in adult Rhesus monkeys (4) via an argon laser photocoagulation of trabecular meshwork in the eye. The treated eye (only one is lasered) was allowed to heal and the IOP stabilized after about six weeks. Tests were performed by topical administration of one drop of a 0.5% solution of-the test agent to the Ketamine anesthetized Rhesus monkey's eye. The IOP charge was recorded by an Alcon Applanation Phneumatonograph. The peak effect was recorded as a percentage change in the hypertensioned eye versus the IOP value of the same eye recorded at the same hour the previous day.
For experiment [2], the system named is Intraocular Pressure. The experiment in a line: Normal Rabbit Model, IOP lowering after topical administration. In kind it is in vivo, New Zealand albino rabbits. As to conditions: Oryctolagus cuniculus, read-out: (B) 50uL 1% topical Normal Rabbit %IOP. As to the method:
To determine the IOP reduction efficacy of the anti-glaucoma drugs of the invention in normal albino rabbits the following was done.
New Zealand albino rabbits (12) were acclimatized in restraining boxes for thirty minutes. Alcaine/ saline (1:5) was applied to the rabbit eyes and baseline IOP in mm Hg pressure were measured using an Alcon Laboratory Applanation Phneumatonograph. Then thirty minutes later, the coded test substance versus a coded saline control was administered as a 50 ul drop to one eye, six animals in each group. The treatment effects were measured as a function of time. Mean IOP and mean change in IOP for each hourly reading was recorded.
The effect cited is a peak percentage effect versus the external control test group.

The mark [3] stands for this setting: 50uL 1% topical to one eye, peak percentage effect versus the external (saline) control group.

For `Clc1cccc(Cl)c1N=C1NCCN1` [2,6-Dichloro-N-2-imidazolidinylidene-benezamine, reference compound], in the experiment on Intraocular Pressure [1], the “(A) 50uL 0.5% topical Laser-Monkey %IOP” value is -32.0%. The change in vivo at 1 % in the experiment on Intraocular Pressure [2] (setting [3]) is -13.9%.

Take `Nc1ccc(Cl)c(N=C2NCCN2)c1Cl` [2,6-Dichloro-N^1-(2-imidazolidinylidene)-1,3-benzenediamine hydrochloride]: in the experiment on Intraocular Pressure [2] (topical), the change in vivo at 1 % was 0%.

As for `Cl.Cl.Nc1cc(Cl)c(N=C2NCCN2)c(Cl)c1` [2,6-Dichloro-N^1-(2-imidazolidinylidene)-1,4-benzenediamine Dihydrochloride], the “(A) 50uL 0.5% topical Laser-Monkey %IOP” value with Intraocular Pressure [1] was -21.0%. In addition, the change in vivo at 1 % in the experiment on Intraocular Pressure [2] (setting [3]) is -1.3%.

On to `CN(C)c1cc(Cl)c(N=C2NCCN2)c(Cl)c1` [2,6-Dichloro-N^1-(2-imidazolidinylidene)-N^4, N^4-dimethyl-1,4-benzenediamine Dihydrochloride], for which the change in vivo at 1 % in the experiment with Intraocular Pressure [2] (topical) is -10.2%.

Take `CCOC(=O)c1cc(Cl)c(N=C2NCCN2)c(Cl)c1` [3,5-Dichloro-4-(2-imidazolidinylideneamino)-benzoic acid ethyl ester]: the change in vivo at 1 % in the experiment with Intraocular Pressure [2] (setting [3]) was -5.6%.

Consider `O=C(O)c1cc(Cl)c(N=C2NCCN2)c(Cl)c1` [3,5-Dichloro-4-(2-imidazolidinylideneamino)-benzoic acid], for which the change in vivo at 1 % in the experiment on Intraocular Pressure [2] (setting [3]) is -4.5%.

`Cl.Oc1cc(Cl)c(N=C2NCCN2)c(Cl)c1` [3,5-Dichloro-4-(2-imidazolidinylideneamino)-phenol Hydrochloride]: the “(A) 50uL 0.5% topical Laser-Monkey %IOP” value with Intraocular Pressure [1] is reported as -23.0%. The change in vivo at 1 % in the experiment with Intraocular Pressure [2] (topical) is -7.4%.

Consider `OCc1cc(Cl)c(N=C2NCCN2)c(Cl)c1` [3.5-Dichloro-4-(2-imidazolidinylideneamino)-benzenemethanol], for which the “(A) 50uL 0.5% topical Laser-Monkey %IOP” value with Intraocular Pressure [1] is recorded as -17%. In addition, the change in vivo at 1 % with Intraocular Pressure [2] (setting [3]) came to 0%.

`N#Cc1cc(Cl)c(N=C2NCCN2)c(Cl)c1` [4-Cyano-2,6-dichloro-N-(2-imidazolidinylidene)-benzamine Hydrochloride]: in the experiment on Intraocular Pressure [2] (setting [3]), the change in vivo at 1 % was -2.3%.

With `O=CNc1cc(Cl)c(N=C2NCCN2)c(Cl)c1` [N-[3,5-Dichloro-4-(2-imidazolidinylideneamino) -phenyl]-formamide Free Base], in the experiment with Intraocular Pressure [1], the “(A) 50uL 0.5% topical Laser-Monkey %IOP” value was -26.0%. Besides, the change in vivo at 1 % with Intraocular Pressure [2] (setting [3]) is -15.6%.

Regarding `CC(=O)Nc1cc(Cl)c(N=C2NCCN2)c(Cl)c1.Cl` [N-[3,5-Dichloro-4-(2-imidazolidinylideneamino)-phenyl]-acetamide Hydrochloride], the “(A) 50uL 0.5% topical Laser-Monkey %IOP” value in the experiment with Intraocular Pressure [1] was -4.0%. Further, the change in vivo at 1 % in the experiment on Intraocular Pressure [2] (setting [3]) is -19%.
